Patent US8110543B2, “Anti-invasive and anti-angiogenic compositions” (Angstrom Pharmaceuticals, Inc., priority 1997, dated 2012)

Columns and labels:
Mat B-III = experiment: In vitro proliferation, Mat B-III cells; type: cell-based, rat
Description: Å6 was also tested for its ability to inhibit the proliferation of cells other than endothelial cells in vitro.

uPAR = uPAR (Homo sapiens, UniProt Q03405); experiment: Binding of uPA to uPAR
uPA = uPA (Homo sapiens, UniProt P00749); experiment: uPA activity / activation of plasminogen; type: biochemical
plasmin = plasmin (Homo sapiens, UniProt P00747); experiment: Plasmin activity; type: biochemical
plasmin, sequence (P00747 97-580 limits assumed, species assumed): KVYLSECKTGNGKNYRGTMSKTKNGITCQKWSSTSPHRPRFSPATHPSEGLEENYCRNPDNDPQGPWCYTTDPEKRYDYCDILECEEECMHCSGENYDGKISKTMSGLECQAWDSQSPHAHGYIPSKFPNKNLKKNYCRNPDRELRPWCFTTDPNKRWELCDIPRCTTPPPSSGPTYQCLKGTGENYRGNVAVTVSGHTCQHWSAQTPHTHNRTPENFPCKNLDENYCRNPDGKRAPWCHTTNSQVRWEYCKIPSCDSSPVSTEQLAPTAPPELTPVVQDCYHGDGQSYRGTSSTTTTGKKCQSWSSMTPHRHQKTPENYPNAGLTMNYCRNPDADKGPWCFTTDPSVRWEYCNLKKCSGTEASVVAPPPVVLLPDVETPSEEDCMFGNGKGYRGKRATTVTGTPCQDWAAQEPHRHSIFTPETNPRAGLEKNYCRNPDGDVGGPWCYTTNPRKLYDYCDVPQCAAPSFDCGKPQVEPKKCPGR
plasmin, sequence (P00747 581-810 limits assumed, species assumed): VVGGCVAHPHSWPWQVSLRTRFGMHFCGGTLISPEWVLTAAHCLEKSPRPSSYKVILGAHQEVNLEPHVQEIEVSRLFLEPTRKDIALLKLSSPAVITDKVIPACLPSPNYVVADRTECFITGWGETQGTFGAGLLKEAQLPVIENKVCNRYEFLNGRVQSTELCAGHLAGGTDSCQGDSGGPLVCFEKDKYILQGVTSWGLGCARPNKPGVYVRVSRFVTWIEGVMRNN

Mat B-III tumors = experiment: Rat syngeneic Mat B-III breast cancer model; type: in vivo
Description: The effects of the compounds are tested on tumor progression in a rat syngeneic model of breast cancer (Xing and Rabbani, 1996). Mat BIII rat breast tumor cells (1×10^6 cells in PBS, 0.1 mL per rat) are inoculated into the mammary fat pads of female Fisher rats. The test compound is dissolved in PBS (200 mM stock), sterile filtered and dispensed in vivo at a dose of up to about 100 mg/kg/day) using a 14-day Alza osmotic mini-pump implanted intraperitoneally at the time of inoculation. Control animals receive vehicle (PBS) alone. Animals are euthanized at day 14 and examined for metastasis in the spleen, lungs, liver, kidney and lymph nodes. In addition, the primary tumors are excised, quantitated, and prepared for immunohistochemistry.
The rat syngeneic breast cancer system (Xing and Rabbani, 1996) employs Mat BIIIrat breast cancer cells. When Mat B-III cells (1×10^6 cells) are inoculated into the mammary fat pad of female Fisher rats, they form large tumors which metastasize to regional lymph nodes (LNs) and other distal sites within 14-20 days.
Å6 was initially delivered prophylactically (infusion starting on the day of tumor inoculation) using an Alzet mini-pump that delivered 75 mg/kg/day. […] Metastasis was quantitated by counting the number of macroscopic foci without regard for their size.
Estrogen receptor-positive Mat B-III tumors were used to test combination treatment with Å6 (75 mg/kg/day) and TAM (3 mg/kg/day). In contrast to previous studies, the Mat B-III tumors (inoculated in the mammary fat pad) were staged to 40-50 mm^3 prior to the initiation of treatment. Treatment was continued for 8 days during which time primary tumor growth was measured using calipers (FIG. 14).

3LL = 3LL metastasis model, related peptides; set-up: species or system mice; conditions: mouse, in vivo
From the text: This model has been utilized by a number of investigators. See, for example, Gorelik, E. et al., J. Nat'l. Canc. Inst. 65:1257-1264 (1980); Gorelik, E. et al., Rec. Results Canc Res. 75:20-28 (1980); Isakov, N. et al., Invasion Metas. 2:12-32 (1982); Talmadge J. E. et al., J. Nat'l. Canc. Inst. 69:975-980 (1982); Hilgard, P. et al, Br. J. Cancer 35:78-86 (1977)). Test mice are male C57BL/6 mice, 2-3 months old. Following sc, im, or intra-footpad implantation, this tumor produces metastases, preferentially in the lungs. With some lines of the tumor, the primary tumor exerts anti-metastatic effects and must first be excised before study of the metastatic phase (see also U.S. Pat. No. 5,639,725).
Single-cell suspensions are prepared from solid tumors by treating minced tumor tissue with a solution of 0.3% trypsin. Cells are washed 3 times with PBS (pH 7.4) and suspended in PBS. Viability of the 3LL cells prepared in this way is generally about 95-99% (by trypan blue dye exclusion). Viable tumor cells (3×10^4-5×10^6) suspended in 0.05 ml PBS are injected subcutaneously, either in the dorsal region or into one hind foot pad of C57BL/6 mice. Visible tumors appear after 3-4 days after dorsal sc injection of 10^6 cells. The day of tumor appearance and the diameters of established tumors are measured by caliper every two days.
The treatment is given as one or two doses of peptide or derivative, per week. In another embodiment, the peptide is delivered by osmotic minipump.
Lungs are removed and weighed. Lungs are fixed in Bouin's solution and the number of visible metastases is recorded. The diameters of the metastases are also measured using a binocular stereoscope equipped with a micrometer-containing ocular under 8× magnification. On the basis of the recorded diameters, it is possible to calculate the volume of each metastasis. To determine the total volume of metastases per lung, the mean number of visible metastases is multiplied by the mean volume of metastases. To further determine metastatic growth, it is possible to measure incorporation of ^125IdUrd into lung cells (Thakur, M. L. et al., J. Lab. Clin. Med. 89:217-228 (1977). Ten days following tumor amputation, 25 μg of fluorodeoxyuridine is inoculated into the peritoneums of tumor-bearing (and, if used, tumor-resected mice). After 30 min, mice are given 1 μCi of ^125IdUrd (iododeoxyuridine). One day later, lungs and spleens are removed and weighed, and a degree of ^125IdUrd incorporation is measured using a gamma counter.
In addition to Å6, other related peptide compounds described above are tested for efficacy in vivo in the 3LL model (as provided above) as well as the PC-3 model. PC-3 cells transfected with the gene encoding the enzyme chloramphenicol acetyl-transferase (CAT) are inoculated into mice i.v. at doses of 1×10^6 cells per mouse. These mice are implanted with a minipump, as above, which dispenses 100 mg/kg/day of the peptide or vehicle over a period of 14 or 21 days. At termination of treatment, the animals are euthanized and the tumor marker probe is assayed in regional lymph nodes, femurs, lungs, and brain.

[1] = mouse, in vivo, iv, 37.5 mg/kg
Description: Protein binding studies are presently underway.
Pharmacokinetic analysis was carried out by Gilbert Lam, MicroConstants.

[2] = tested on: MDA-MB-231 human breast cancer cells; experiment: MDA-MB-231 GFP xenograft model; set-up: species or system mice; conditions: mouse, in vivo
[3] = Alzet mini-pump 75 mg/kg/day from the day of tumor inoculation
[4] = comparative analysis of related peptides

uPAR, sequence (Q03405 23-305 limits assumed): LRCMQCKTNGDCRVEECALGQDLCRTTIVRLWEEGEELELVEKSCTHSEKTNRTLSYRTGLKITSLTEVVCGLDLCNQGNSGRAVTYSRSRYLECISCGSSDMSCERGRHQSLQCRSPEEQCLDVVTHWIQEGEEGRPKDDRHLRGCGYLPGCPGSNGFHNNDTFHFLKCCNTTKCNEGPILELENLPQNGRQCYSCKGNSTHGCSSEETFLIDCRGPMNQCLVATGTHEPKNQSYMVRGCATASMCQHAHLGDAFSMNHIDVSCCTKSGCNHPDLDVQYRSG

With “Ac-KPSSPPEE-NH2 [Å6, CH3CO-Lys-Pro-Ser-Ser-Pro-Pro-Glu-Glu-NH2]” the “anti-proliferative effect, Mat B-III” value (Mat B-III) was “No anti-proliferative effects”, the “inhibition of binding of uPA to uPAR” value (uPAR) was “no effect” and the “effect on the activity of uPA directly” value (uPA) was “did not affect”. The “inhibition of the activation of plasminogen” value (uPA) was “no effect”, the “effect on the activity of plasmin directly” value (plasmin) was “did not affect” and the LN metastasis (Mat B-III tumors; [3]) was “inhibition”. For the same substance, the tumor growth (Mat B-III tumors; [3]) was “inhibition”, the “number of metastases in the spleen, lungs, liver, kidney and lymph nodes” value (Mat B-III tumors; [4]) was “significant reduction” and the “size of the primary tumor” value (Mat B-III tumors; [4]) was “significant reduction”. For the same substance, the “necrosis of the primary tumor periphery” value (Mat B-III tumors; histological analysis, Å6-treated rats) was 50-75%, the “decrease in Factor VIII-positive foci” value (Mat B-III tumors; tumor sections) was 40-60% and the “TUNEL assay for apoptosis of tumor cells” value (Mat B-III tumors; Å6-treated groups) was “stained positive”. For the same substance, the “metastasis, 3LL model” value (3LL) was “markedly inhibited”, the clearance [1] was 33.3 mL/min/kg and the half-life [1] was 12 min. For the same substance, the solubility was over 100 mg/mL and the “efficacy on tumors staged to 50-100 mm^3 prior to initiating treatment” value [2] was “ineffective”.
